Experimental data reported in the NIST ThermoML archive (doi:10.1021/je301132p).

Assay: mn = molality of the nth substance listed, in mol/kg
Conditions: Liquid, Vibrating tube method

O=C([O-])O.[Na+] [sodium bicarbonate] + O
mass density [kg/m3]
Conditions	298.11 K	323.13 K	348.12 K	373.12 K	398.08 K	423.07 K	448.03 K	473.02 K
1100 kPa, m1 = 0.507	1026.64	1016.27	1002.67	986.45	967.23	945.6	921.6	–
1100 kPa, m1 = 1	1053.32	1042.1	1028.17	1011.61	992.49	971.16	947.75	–
10100 kPa, m1 = 0.507	1030.34	1019.92	1006.34	990.43	971.5	950.33	926.98	900.8
10100 kPa, m1 = 1	1056.9	1045.63	1031.76	1015.42	996.59	975.62	952.76	927.94
20100 kPa, m1 = 0.507	1034.56	1023.96	1010.5	994.75	976.19	955.52	932.57	907.44
20100 kPa, m1 = 1	1060.94	1049.49	1035.74	1019.51	1001.1	980.58	958.38	934.21
30100 kPa, m1 = 0.507	1038.58	1027.87	1014.5	998.96	980.67	960.51	938.23	913.71
30100 kPa, m1 = 1	1064.78	1053.27	1039.62	1023.49	1005.36	985.4	963.67	940.3
40100 kPa, m1 = 0.507	1042.55	1031.74	1018.42	1003.05	985.06	965.22	943.62	919.81
40100 kPa, m1 = 1	1068.62	1057.11	1043.26	1027.56	1009.57	989.89	968.83	946.08
50100 kPa, m1 = 0.507	1046.47	1035.56	1022.29	1007.05	989.37	969.93	948.68	925.55
50100 kPa, m1 = 1	1072.42	1060.81	1047.06	1031.43	1013.71	994.52	973.77	951.65
60100 kPa, m1 = 0.507	1050.19	1039.28	1026.03	1010.74	993.56	974.48	953.67	931
60100 kPa, m1 = 1	1075.95	1064.4	1050.67	1035.29	1017.88	998.85	978.58	956.83
68600 kPa, m1 = 0.507	1053.46	1042.41	1029.22	1014.16	996.98	978.13	957.69	935.54
68600 kPa, m1 = 1	1079.05	1067.35	1053.84	1038.44	1021.02	1002.43	982.48	961.25

O=S(=O)([O-])[O-].[Na+].[Na+] [sodium sulfate] + O
mass density [kg/m3]
Conditions	298.11 K	323.13 K	348.12 K	373.12 K	398.08 K	423.07 K	448.03 K	473.02 K
1100 kPa, m1 = 0.783	1089.58	1077.81	1063.59	1047	1028.03	1006.98	983.81	–
1100 kPa, m1 = 1.502	1164.61	1151.3	1136.41	1119.57	1100.73	1080.12	1057.71	–
10100 kPa, m1 = 0.783	1092.97	1081.15	1067.05	1050.62	1032.04	1011.36	988.74	963.68
10100 kPa, m1 = 1.502	1167.61	1154.41	1139.53	1122.86	1104.32	1084.06	1062.06	1038.23
20100 kPa, m1 = 0.783	1096.83	1084.87	1070.84	1054.57	1036.41	1016.13	994.07	969.72
20100 kPa, m1 = 1.502	1170.98	1157.75	1143.04	1126.48	1108.32	1088.31	1067	1043.59
30100 kPa, m1 = 0.783	1100.47	1088.46	1074.53	1058.52	1040.58	1020.77	998.93	975.48
30100 kPa, m1 = 1.502	1174.24	1161	1146.45	1130.05	1112.1	1092.62	1071.61	1048.78
40100 kPa, m1 = 0.783	1104.07	1092.02	1078.24	1062.4	1044.61	1025.11	1004.1	981.03
40100 kPa, m1 = 1.502	1177.46	1164.24	1149.78	1133.55	1115.8	1096.64	1076.11	1053.91
50100 kPa, m1 = 0.783	1107.68	1095.52	1081.79	1066.07	1048.55	1029.51	1008.75	986.37
50100 kPa, m1 = 1.502	1180.69	1167.41	1153.06	1136.94	1119.47	1100.57	1080.33	1058.64
60100 kPa, m1 = 0.783	1111.07	1098.98	1085.27	1069.75	1052.44	1033.66	1013.33	991.46
60100 kPa, m1 = 1.502	1183.64	1170.49	1156.2	1140.35	1123.02	1104.44	1084.59	1063.34
68600 kPa, m1 = 0.783	1113.99	1101.8	1088.2	1072.82	1055.65	1037.1	1017.15	995.65
68600 kPa, m1 = 1.502	1186.24	1173.08	1158.87	1143.15	1125.97	1107.66	1088.14	1067.18
